Measurements reported in patent US20230002327A1, “SMALL-MOLECULE REGULATOR OF TLR8” (TSINGHUA UNIVERSITY, priority 2019, published 2023).

Tests used:
HEK-Blue hTLR8 cell line = assay: Toxicity test of compounds (CCK-8 cell viability); type: cell-based, human; parameters: key to WST1 (normalized toxicity effect): viability relative to control well (background-subtracted OD), 1 = control
Procedure: In the 96-well plate used for the above-mentioned activity test of compounds (remaining 50 μL of culture medium containing cells), 5 μL of CellCountingKit-8 (CCK-8) Supermix was added to each well. Note that the introduction of air bubbles into the wells should be avoided since the air bubbles would interfere with the detection of OD value.
The culture plate was incubated in an incubator for 1 to 4 hours,
The edge of the 96-well plate could be tapped gently before reading the plate, and then the absorbance at 450 nm was measured by using the multi-mode plate reader.
Cell viability (%) was determined using the following formula: cell viability (%)=([Compound well ([…])−Background well (OD450)]/[Control well ([…])−Background well (OD450)])×100%. Among these, the background well was only added with the medium and CCK-8 reagent, the control well was only added with the medium, cells, R848 and CCK-8, and the compound wells were added with the medium, cells, R848, compounds in different concentrations, and CCK-8.

TLR8 [1] = molecular target: T1, TLR8 (Homo sapiens, UniProt Q9NR97); assay: Inhibition of R848-induced signaling in HEK-Blue hTLR8 cell line (Quanti-Blue); type: cell-based
T1 construct: host or cells: HEK-Blue hTLR8 (HEK293-derived SEAP reporter cells)
T1 sequence (Q9NR97 27-1041): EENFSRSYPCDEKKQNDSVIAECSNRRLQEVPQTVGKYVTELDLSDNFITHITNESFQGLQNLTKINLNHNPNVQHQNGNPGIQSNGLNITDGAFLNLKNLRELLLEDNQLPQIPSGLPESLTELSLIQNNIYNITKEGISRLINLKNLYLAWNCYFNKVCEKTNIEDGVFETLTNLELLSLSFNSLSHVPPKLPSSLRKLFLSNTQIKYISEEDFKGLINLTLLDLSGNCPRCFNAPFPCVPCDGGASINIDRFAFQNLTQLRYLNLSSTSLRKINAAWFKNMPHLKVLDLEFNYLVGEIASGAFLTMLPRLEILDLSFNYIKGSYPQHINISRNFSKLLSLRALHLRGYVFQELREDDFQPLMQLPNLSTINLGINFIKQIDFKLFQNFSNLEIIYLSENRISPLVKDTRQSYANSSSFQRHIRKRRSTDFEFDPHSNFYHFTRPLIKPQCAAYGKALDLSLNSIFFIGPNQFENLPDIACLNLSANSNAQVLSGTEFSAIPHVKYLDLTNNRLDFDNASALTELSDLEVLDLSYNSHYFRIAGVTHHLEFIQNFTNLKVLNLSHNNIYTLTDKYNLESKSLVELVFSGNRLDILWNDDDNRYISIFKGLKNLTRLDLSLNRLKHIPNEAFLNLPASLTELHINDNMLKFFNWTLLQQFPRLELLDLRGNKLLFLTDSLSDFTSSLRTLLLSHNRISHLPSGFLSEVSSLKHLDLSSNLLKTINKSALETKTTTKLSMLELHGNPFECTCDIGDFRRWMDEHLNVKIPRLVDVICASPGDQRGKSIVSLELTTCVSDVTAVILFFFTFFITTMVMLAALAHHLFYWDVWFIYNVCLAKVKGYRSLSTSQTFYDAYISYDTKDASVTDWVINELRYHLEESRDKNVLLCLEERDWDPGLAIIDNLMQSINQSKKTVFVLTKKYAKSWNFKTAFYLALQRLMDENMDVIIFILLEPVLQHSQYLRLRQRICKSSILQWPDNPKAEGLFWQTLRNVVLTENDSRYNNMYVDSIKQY
In short: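 HEK-Blue hTLR8 cells, 45,000 per well, cultured 24 h then switched to serum-free DMEM; after a further 24 h, supernatant SEAP read with Quanti-Blue at 620 nm. Inhibition computed relative to R848 and untreated-cell OD620; IC50 from curve fit.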

TLR8 [2] = molecular target: T1, TLR8; assay: Specificity test in HEK-Blue TLR cell lines: TLR8; type: cell-based
Procedure: (§1) The selectivity of compounds for receptors in TLR family was tested in HEK-Blue cells overexpressing various TLRX (x=1 to 9) respectively. The steps of this test method were the same as those mentioned above in “Activity Test of Compounds”, except that the ligands corresponding to different TLRs were used to activate the downstream signaling in the corresponding cells. Among these, ploy (I:C) (20 μg/mL), LPS (40 ng/mL), Pam3CSK4 (100 ng/mL), Pam2CSK4 (100 ng/mL), flagellin (200 ng/mL), R848 (1 μg/mL) and ODN2006 (0.5 μM) were used to selectively activate HEK-Blue hTLR3-, hTLR4-, hTLR1/2-, hTLR2/6-, hTLR5-, hTLR7- and hTLR9-overexpressing cells, respectively.

TLR8 [3] = molecular target: T1, TLR8; assay: ORN06-induced signaling in HEK-Blue hTLR8 cell line; type: cell-based
Procedure: HEK Blue hTLR8 cells or HEK Blue hTLR7 cells were cultured in DMEM medium supplemented with 10% fetal bovine serum, penicillin (100 U/mL) and streptomycin ([…]). Thereafter, cells were seeded in 96-well plate (45,000 cells per well), and were cultured for 24 hours in a humidified incubator (37° C., 5% CO2).
After 24 hours, the supernatant and suspending cells were aspirated and replaced with fresh serum-free DMEM. Cells were treated with 1 μg/mL of R848 (agonist of TLR7/8) or 5 μg/mL of ssRNA40/LyoVec or 5 μg/mL of ORN06/LyoVec (InvivoGen) and compounds with specified concentrations, and were placed in a humidified incubator (37° C., 5% CO2) for co-culture.
After 24 hours, 50 μL of the medium was aspirated from each well and then added to a new 96-well plate, followed by the addition of 50 μL of Quanti-Blue in each well and the incubation at 37° C. in darkness. Changes in color would occur in the […] within 60 minutes, and the absorbance was measured at 620 nm by using the multi-mode plate reader Vrioskan Flash. Inhibition rate (%)=[R848 (OD620)−Compound (OD620)]/[R848 (OD620)−Control (OD620)]×100%. Among these, the control group was only added with the same amount of cells. Finally, the software Prism 6.0 was utilized to plot a graph and calculate IC50 values. […]

[4] = test system: hTLR1/2, TLR2/6, TLR3, TLR4, TLR5, TLR7, TLR9; assay: Specificity test in HEK-Blue TLR cell lines: other TLRs; type: cell-based, human; conditions: at a concentration of 100 μM (FIG. 11)
Procedure: as §1

[5] = HEK-Blue hTLR8 cell line (FIG. 1, FIG. 10)
[6] = HEK-Blue hTLR8 cell line, at a concentration of 100 μM (FIG. 12)

Row | inhibitory effect on R848-induced signaling (TLR8 [1]; [5]) | IC50 (TLR8 [1]; R848-induced signaling, HEK-Blue hTLR8 cell line, value ± standard deviation, at least triplicate) [nM] | specific inhibitory effect on HEK-Blue hTLR8 cell line (TLR8 [2]; at a concentration of 20 μM (FIG. 3)) | inhibitory effect on ORN06-induced signaling (TLR8 [3]; HEK-Blue hTLR8 cell line (FIG. 1)) | inhibitory effect on R848-induced signaling (TLR8 [1]; [6]) | Remaining R848-induced TLR8 signaling (normalized activity; ligand+DMSO = 1, untreated = 0) (TLR8 [1]; HEK-Blue hTLR8 cell line, normalized, ligand+DMSO = 100% activity, untreated = 0%) | specific inhibitory effect on TLR8 signaling pathway (TLR8 [2]; at a concentration of 100 μM (FIG. 11)) | synergistic activating effect on ORN06-induced signaling (TLR8 [3]; [6]) | SMILES | toxicity in HEK-Blue hTLR8 cell line (HEK-Blue hTLR8 cell line; even at a concentration of 100 μM (FIG. 2)) | influence on other TLR signaling pathways [4] | influence on cell viability (HEK-Blue hTLR8 cell line; HEK-Blue hTLR8 cells, under the test conditions (FIG. 10)) | WST1 (normalized toxicity effect) (HEK-Blue hTLR8 cell line; normalized cell viability, HEK-Blue cell lines)
1 | excellent inhibitory effect | 30 ± 2 | specific inhibitory effect | excellent inhibitory effect |  |  |  |  | CSc1nnc(CCCO)n1-c1cc(C)c(C)c(C)c1 [Compound 24, 3-(5-(methylthio)-4-(3,4,5-trimethylphenyl)-4H-1,2,4-triazole-3-yl)propan-1-ol] | did not cause significant toxicity |  |  | 
2 | significant inhibitory effect |  |  |  | significant inhibitory effect | 0.1 ± 0.1 | specific inhibitory effect | synergistic activating effect | CCOCc1nc(I)c(-c2ccccc2)n1CC(C)(C)O [Compound 53, 1-[2-(ethoxymethyl)-4-iodo-5-phenyl-1H-imidazole-1-yl]-2-methylpropan-2-ol] |  | no influence | no influence on cell viability | 0.9 ± 0.2
